We go through 1 compound from publication PMC6943527, “Are the Hydantoin-1,3,5-triazine 5-HT6R Ligands a Hope to a Find New Procognitive and Anti-Obesity Drug? Considerations Based on Primary In Vivo Assays and ADME-Tox Profile In Vitro” (Molecules, 2019).

One data set addresses 5-HT2A. On the set-up: method as in PMID 30282913. The conditions noted are these: radioligand binding, average of at least two independent experiments; read-out: Ki 5-HT2A [3H]-Ketanserin; cited from earlier work.
The target of the next data set is D2. The arrangement: method as in PMID 30282913. The conditions noted are these: radioligand binding, average of at least two independent experiments; read-out: Ki D2 [3H]-Raclopride; cited from earlier work.
On the set-up of data set [1]: method as in PMID 30530073. The conditions noted are these: QikProp, Schrödinger Suite; cited from earlier work.
A further data set deals with Caco-2 cells. Briefly: Caco-2 permeability assay. It is filed as in vitro ADME. The protocol:
(§1) The Caco-2 (ATCC® HTB-37^TM) cell line was purchased from American Type Culture Collection (ATCC) (Manassas, VG, USA). The cells were cultivated in Dulbecco’s Modified Eagle’s Medium (DMEM) supplemented with 10% fetal bovine serum (FBS) in a humidified atmosphere of 5% CO2. The medium was changed every two days, and the cells were subcultured at 70%–80% confluence. […] The inserts were pretreated first with 50 µL of the medium for two minutes. Next, the 200 µL of cells were seeded at […] concentration per insert in apical compartment, whereas 600 µL was added to the basolateral one. […] TEER (transepithelial electrical resistance) measurements was started from 18 days after seeding by Millicell ERS-2 Volt-Ohm Meter (Merck Millipore, Burlington, MA, USA). […] Then, the monolayer was rinsed with HBSS (Hank’s balanced salt solution) and KMP-10, and the highly permeable reference CFN was added at a 10 µM concentration with the HBSS into the apical chambers. The 600 µL of HBSS was added to the basolateral compartments. Lucifer yellow (5 µM) was also added to the apical chambers as the membrane integrity marker. The plate was placed in the orbital shaker (60 rpm) for 2 h at 37 °C. The compounds’ concentrations in apical and basolateral wells were analyzed using the UPLC-MS method with IS. To confirm the membrane integrity, the fluorescence of lucifer yellow was measured in basolateral compartment by EnSpire multiplate reader (Perkin Elmer, Waltham, MA, USA).
(§2) The apparent permeability Papp was calculated from two experiments according to the following formula [34]:Papp= dc/dt × V/(A × C0)(1) where: • dc/dt—the change in concentration in the receiving compartment over time • V—volume of the solution in the receiving compartment (mL) • A—surface area of the membrane (cm^2) • C0—the initial concentration in the donor compartment (µM).

A short description of data set [2]: Caco-2 permeability assay. It is filed as in vitro ADME. The conditions noted are these: human, Caco-2; 10 µM in apical chamber, 2 h, 37 °C, two experiments; read-out: Caco-2 Papp ± SD. The protocol:
as §1, §2
Background: Passage across Caco-2 layers is used to estimate intestinal permeability.

The next data set concerns the target 5-HT7. The arrangement: method as in PMID 30282913. The conditions noted are these: radioligand binding, average of at least two independent experiments; read-out: Ki 5-HT7 [3H]-5-CT; cited from earlier work.
Data set [3] in a line: Novel object recognition (NOR) test. It is filed as in vivo, male Wistar rats. The conditions noted are these: rats. The protocol:
The experiments were performed on male Wistar rats (200–220 g) obtained from an accredited animal facility at the Jagiellonian University Medical College, Poland. The animals were housed in group of four in controlled environment (ambient temperature 21 ± 2 °C; relative humidity 50%–60%; 12-h light/dark cycles (lights on at 8:00). Standard laboratory food (LSM-B) and filtered water were freely available. Animals were randomly assigned to treatment groups. All the experiments were performed by two observers unaware of the studied treatment between 9:00 and 14:00 on separate groups of animals. All animals were used only once. Procedures involving animals and their care were conducted in accordance with current European Community and Polish legislation on animal experimentation. Additionally, all efforts were made to minimize animal suffering and to use only the number of animals necessary to produce reliable scientific data. […]
The animals explored the objects by looking, licking, sniffing or touching the object but not when leaning against, standing or sitting on the object. […] The exploration time of the objects was measured by blind experimenter. Based on exploration time (E) of the two objects during T2, the discrimination index (DI) was calculated according to the formula: DI = (EB − EA)/(EA + EB). […]

On the set-up of data set [4]: method as in PMID 30282913. The conditions noted are these: overeating model, vs control group; cited from earlier work.

With `CN1CCN(c2nc(N)nc(CN3C(=O)NC(C)(c4ccc5ccccc5c4)C3=O)n2)CC1` (stereo not shown) [KMP-10, 3-((4-amino-6-(4-methylpiperazin-1-yl)-1,3,5-triazin-2-yl)methyl)-5-methyl-5-(naphthalen-2-yl)imidazolidine-2,4-dione], the inhibition constant Ki (in general, a measure of affinity in units of concentration, obtained from inhibition or displacement) at 5-HT2A is 17.2 µM; on D2 it was 4.25 µM; at 5-HT7, 0.514 µM. Moreover, in data set [1], the QPlogBB is −0.92. Moreover, the Caco-2 permeability classification entry in the data set with Caco-2 cells (bands: Papp <2 low, 2-20 moderate, >20 × 10^−6 cm/s high) is on record as “moderate permeability”. In the data set on Caco-2 cells (vs caffeine), the “Caco-2 absorption, fold weaker than caffeine” value is on record as 3 fold. Besides, the apparent permeability coefficient (Papp) (usually a coefficient for how fast a substance crosses the barrier) at 2 h, 10 µM in data set [2] is 6.27 ± 0.3 ×10⁻⁶ cm/s. Besides, in data set [3] (full dose-range 0.3–3 mg/kg i.p.), the “Memory deficits induced by scopolamine in NOR test” value is “significantly and dose-dependently reversed”. Further, the “Memory impairment induced by MK-801 in NOR test, discrimination index” value in data set [3] (some activity at 1 mg/kg i.p.) is reported as “did not reach a statistically significant level”. The “Increase of body mass” value in data set [4] is reported as “significantly lower increase”.
